Assay [1] addresses Mitogen-activated protein kinase 10 (Homo sapiens, UniProt P53779). Briefly: Dose response biochemical screening assay for inhibitors of c-Jun N-Terminal Kinase 3 (JNK3). [Related pubchem assays: 746 ].
A further assay addresses Beta-galactosidase (Escherichia coli, UniProt Q8VNN2). Briefly: Dose response counterscreen for EBI2 assay utilizing the enzyme, b-galactosidase. It counts as functional. In general terms: The purpose of a counterscreen is to sort out artefacts and off-target activity.
Assay [2] can be described thus: inhibitors of Vif binding to APOBEC3G peptide, primary screen, biochemical, TR-FRET, GST-Vif 1-94, biotin-A3G peptide, dose response retest (AID 1117319).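 Note: TR-FRET signal of purified GST-Vif binding a biotinylated A3G peptide; inhibitors lower the FRET signal by blocking Vif and A3G binding.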 It counts as functional. Background: Time-resolved FRET reads energy transfer from a long-lived donor to a nearby acceptor.
Assay [3] has as its target Endoplasmic reticulum aminopeptidase 1 (Homo sapiens, UniProt Q9NZ08). The assay can be described thus: ERAP1 aminopeptidase inhibitors, dose response, biochemical, cherry-pick, set 2, plate reader (AID 743314).
For the next assay, the target named is T1, Streptokinase A (Streptococcus pyogenes serotype M1, UniProt P10520).
T1 sequence (P10520 whole entry): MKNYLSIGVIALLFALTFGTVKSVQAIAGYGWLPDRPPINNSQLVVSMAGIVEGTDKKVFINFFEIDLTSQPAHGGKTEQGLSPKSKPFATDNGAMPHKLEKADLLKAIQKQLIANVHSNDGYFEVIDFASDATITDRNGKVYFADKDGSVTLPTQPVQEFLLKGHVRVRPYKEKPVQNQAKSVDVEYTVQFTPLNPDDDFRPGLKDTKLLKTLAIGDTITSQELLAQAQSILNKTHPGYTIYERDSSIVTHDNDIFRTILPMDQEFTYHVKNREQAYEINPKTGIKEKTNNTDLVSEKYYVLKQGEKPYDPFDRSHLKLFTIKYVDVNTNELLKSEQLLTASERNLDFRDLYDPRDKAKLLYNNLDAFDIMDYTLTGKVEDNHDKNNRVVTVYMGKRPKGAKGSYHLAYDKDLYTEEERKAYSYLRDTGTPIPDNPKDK
Briefly: S. pyogenes streptokinase expression inhibitors, potency, dose response, plasminogen activation absorbance, OD405 (AID 1914).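 Note: secreted streptokinase activity via plasminogen activation per viability signal from cell pellet.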 It counts as functional, Streptococcus pyogenes M1 GAS.

The target of assay [4] is T2, Estrogen receptor beta (Homo sapiens, UniProt Q92731).
T2 sequence (Q92731 whole entry): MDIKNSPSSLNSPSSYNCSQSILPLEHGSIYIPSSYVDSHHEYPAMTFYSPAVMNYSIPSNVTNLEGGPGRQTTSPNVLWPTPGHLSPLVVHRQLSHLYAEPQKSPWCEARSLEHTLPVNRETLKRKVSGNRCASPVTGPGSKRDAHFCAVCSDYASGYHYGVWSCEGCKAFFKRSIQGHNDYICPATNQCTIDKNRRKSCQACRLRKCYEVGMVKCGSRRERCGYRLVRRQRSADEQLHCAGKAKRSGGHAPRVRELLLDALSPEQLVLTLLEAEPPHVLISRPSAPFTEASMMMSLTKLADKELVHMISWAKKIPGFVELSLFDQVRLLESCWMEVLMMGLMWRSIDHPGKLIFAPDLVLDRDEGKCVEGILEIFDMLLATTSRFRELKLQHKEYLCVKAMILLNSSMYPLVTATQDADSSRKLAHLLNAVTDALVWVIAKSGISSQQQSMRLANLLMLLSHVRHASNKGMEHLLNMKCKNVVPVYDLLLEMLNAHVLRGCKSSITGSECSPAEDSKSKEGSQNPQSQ
Another assay concerns Streptococcus. The assay can be described thus: Group A Streptococcus viability loss, dose response, counter-screen for streptokinase expression inhibitor project, luminescence, BacTiterGlo (AID 1915).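 Note: potency for reduction of bacterial viability or growth.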 It counts as functional, organism-based.
For assay [5], the system named is Streptococcus sp. 'group A'. The assay can be described thus: growth inhibition of control SK(-) GAS strain, dose response, counter-screen for streptokinase expression inhibitor project, luminescence, kanamycin, BacTiterGlo, confirmation (AID 1900). It counts as functional, organism-based.
The target in assay [6] is T2, Estrogen receptor beta. Briefly: ERβ–SRC-3 coactivator interaction inhibitors, confirmation, orthogonal assay, biochemical, ELISA, streptavidin-HRP readout (AID 1060).
Assay [7] has as its target T3, Long-chain-fatty-acid--AMP ligase FadD28 (Mycobacterium tuberculosis, UniProt P9WQ59).
T3 sequence (P9WQ59 whole entry): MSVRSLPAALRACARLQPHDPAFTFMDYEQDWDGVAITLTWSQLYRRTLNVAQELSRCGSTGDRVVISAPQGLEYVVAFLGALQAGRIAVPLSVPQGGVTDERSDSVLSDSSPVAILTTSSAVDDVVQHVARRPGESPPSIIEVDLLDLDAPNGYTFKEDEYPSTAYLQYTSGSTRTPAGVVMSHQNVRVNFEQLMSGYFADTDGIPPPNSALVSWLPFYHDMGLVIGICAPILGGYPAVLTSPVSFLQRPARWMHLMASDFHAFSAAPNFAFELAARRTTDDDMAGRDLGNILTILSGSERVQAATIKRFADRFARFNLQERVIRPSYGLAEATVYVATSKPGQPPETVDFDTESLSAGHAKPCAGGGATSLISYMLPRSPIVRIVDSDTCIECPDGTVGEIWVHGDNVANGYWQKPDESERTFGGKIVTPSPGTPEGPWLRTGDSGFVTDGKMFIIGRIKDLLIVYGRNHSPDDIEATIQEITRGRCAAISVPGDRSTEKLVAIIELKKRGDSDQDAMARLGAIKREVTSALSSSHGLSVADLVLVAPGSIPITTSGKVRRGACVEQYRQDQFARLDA
The assay can be described thus: Fluorescence polarization aasay to screen for inhibitors that compete for the binding of FadD28 to a bisubstrate Measured in Biochemical System Using Plate Reader - 2147-01_Inhibitor_Dose_CherryPick_Activity. It counts as functional, Mycobacterium tuberculosis H37Rv. A general note: In fluorescence polarisation assays a small probe gives low polarisation when free and higher when bound to something large.

Assay [8] deals with T4, Histone-lysine N-methyltransferase NSD2 (Homo sapiens, UniProt O96028).
T4 sequence (O96028 whole entry): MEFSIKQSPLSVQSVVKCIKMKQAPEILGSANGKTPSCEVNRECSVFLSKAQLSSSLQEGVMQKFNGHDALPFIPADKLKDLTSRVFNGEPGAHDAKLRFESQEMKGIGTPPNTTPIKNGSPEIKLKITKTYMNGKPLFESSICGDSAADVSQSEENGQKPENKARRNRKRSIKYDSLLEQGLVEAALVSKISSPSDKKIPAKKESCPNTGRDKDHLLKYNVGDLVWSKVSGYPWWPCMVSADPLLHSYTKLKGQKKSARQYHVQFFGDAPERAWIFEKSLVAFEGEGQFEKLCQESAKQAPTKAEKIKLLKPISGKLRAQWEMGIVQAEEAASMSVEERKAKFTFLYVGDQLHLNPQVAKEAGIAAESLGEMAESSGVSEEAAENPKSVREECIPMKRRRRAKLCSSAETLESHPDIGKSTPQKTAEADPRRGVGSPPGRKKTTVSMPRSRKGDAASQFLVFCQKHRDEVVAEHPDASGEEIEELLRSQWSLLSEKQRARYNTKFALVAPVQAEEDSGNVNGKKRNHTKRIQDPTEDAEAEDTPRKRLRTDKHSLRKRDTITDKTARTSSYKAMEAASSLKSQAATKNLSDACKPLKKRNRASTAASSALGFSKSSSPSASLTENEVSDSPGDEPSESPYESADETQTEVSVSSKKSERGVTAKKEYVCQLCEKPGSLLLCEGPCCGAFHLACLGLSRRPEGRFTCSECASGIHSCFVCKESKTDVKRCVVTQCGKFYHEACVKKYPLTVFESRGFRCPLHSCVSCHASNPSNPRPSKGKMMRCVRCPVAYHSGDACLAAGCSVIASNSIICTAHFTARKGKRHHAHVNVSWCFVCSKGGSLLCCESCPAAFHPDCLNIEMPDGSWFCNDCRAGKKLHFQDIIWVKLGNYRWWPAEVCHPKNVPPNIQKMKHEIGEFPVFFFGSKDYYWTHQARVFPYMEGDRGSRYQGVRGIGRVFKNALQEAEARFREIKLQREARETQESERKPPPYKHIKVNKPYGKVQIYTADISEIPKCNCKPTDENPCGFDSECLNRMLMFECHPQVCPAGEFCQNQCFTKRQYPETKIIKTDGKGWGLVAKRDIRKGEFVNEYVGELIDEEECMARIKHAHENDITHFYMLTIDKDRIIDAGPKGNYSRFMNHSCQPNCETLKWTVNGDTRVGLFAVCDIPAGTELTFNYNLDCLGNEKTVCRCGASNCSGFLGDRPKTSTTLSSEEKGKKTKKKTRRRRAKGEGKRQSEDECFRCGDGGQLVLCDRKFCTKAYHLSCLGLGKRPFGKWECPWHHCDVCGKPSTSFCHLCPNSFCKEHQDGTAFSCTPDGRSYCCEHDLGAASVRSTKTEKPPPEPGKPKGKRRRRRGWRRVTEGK
It counts as biochemical.

A further assay deals with Nonstructural protein 1 (Influenza A virus, UniProt Q194T2). It counts as functional, Influenza A virus (A/California/07/2009(H1N1)).
Chain of Nonstructural protein 1 (Q194T2 whole entry): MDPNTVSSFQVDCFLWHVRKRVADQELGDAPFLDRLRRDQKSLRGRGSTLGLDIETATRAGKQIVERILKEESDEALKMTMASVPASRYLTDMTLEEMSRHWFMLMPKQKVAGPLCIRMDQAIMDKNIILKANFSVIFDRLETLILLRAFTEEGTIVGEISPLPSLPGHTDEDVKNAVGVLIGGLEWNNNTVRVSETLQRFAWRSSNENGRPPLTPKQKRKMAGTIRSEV
In assay [9] the target is T5, Corticotropin-releasing factor receptor 2/Corticotropin-releasing factor-binding protein (Homo sapiens, UniProt P24387+Q13324).
T5 sequence (Q13324 whole entry): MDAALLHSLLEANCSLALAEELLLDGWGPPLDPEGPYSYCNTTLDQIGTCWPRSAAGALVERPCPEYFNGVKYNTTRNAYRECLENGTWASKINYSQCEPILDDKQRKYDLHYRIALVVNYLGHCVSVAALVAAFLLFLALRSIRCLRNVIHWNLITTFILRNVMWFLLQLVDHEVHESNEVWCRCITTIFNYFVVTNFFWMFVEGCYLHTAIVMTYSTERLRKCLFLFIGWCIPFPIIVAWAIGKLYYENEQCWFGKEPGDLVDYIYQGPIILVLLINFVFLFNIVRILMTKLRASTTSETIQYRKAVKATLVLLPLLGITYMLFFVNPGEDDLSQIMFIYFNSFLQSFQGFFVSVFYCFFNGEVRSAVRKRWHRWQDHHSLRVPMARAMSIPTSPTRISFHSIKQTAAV
T5 sequence (P24387 whole entry): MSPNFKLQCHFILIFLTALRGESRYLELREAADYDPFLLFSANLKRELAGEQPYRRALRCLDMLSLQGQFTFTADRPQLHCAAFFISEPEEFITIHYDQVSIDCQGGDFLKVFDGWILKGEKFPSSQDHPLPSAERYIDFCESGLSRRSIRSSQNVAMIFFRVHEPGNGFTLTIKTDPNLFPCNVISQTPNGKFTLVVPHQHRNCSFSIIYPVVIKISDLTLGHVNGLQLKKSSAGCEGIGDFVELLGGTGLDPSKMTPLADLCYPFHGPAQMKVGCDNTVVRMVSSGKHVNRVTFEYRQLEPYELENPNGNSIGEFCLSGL
The assay can be described thus: activators of CRF receptor 2 with binding protein – uHTS hits, confirmation (AID 602473). It counts as functional. The conditions noted are these: read-out: EC50_Mean.

A further assay addresses Prothrombin (Homo sapiens, UniProt P00734). Briefly: Thrombin 1536 HTS Dose Response Confirmation. [Related pubchem assays: 1046 (Thrombin 1536 HTS; hits were confirmed in this assay)]. It counts as functional.
The nature of assay [10]: HEK293T cytotoxicity, dose response, cytotoxicity control for miR-122 modulator project, cell-based, inhibitor set, cherry-pick, set 2 (AID 720697). It counts as functional.

The source made the active and inactive calls. A value given as a limit tells only on which side of the number the result lay.

Chain of Beta-galactosidase (Q8VNN2 whole entry): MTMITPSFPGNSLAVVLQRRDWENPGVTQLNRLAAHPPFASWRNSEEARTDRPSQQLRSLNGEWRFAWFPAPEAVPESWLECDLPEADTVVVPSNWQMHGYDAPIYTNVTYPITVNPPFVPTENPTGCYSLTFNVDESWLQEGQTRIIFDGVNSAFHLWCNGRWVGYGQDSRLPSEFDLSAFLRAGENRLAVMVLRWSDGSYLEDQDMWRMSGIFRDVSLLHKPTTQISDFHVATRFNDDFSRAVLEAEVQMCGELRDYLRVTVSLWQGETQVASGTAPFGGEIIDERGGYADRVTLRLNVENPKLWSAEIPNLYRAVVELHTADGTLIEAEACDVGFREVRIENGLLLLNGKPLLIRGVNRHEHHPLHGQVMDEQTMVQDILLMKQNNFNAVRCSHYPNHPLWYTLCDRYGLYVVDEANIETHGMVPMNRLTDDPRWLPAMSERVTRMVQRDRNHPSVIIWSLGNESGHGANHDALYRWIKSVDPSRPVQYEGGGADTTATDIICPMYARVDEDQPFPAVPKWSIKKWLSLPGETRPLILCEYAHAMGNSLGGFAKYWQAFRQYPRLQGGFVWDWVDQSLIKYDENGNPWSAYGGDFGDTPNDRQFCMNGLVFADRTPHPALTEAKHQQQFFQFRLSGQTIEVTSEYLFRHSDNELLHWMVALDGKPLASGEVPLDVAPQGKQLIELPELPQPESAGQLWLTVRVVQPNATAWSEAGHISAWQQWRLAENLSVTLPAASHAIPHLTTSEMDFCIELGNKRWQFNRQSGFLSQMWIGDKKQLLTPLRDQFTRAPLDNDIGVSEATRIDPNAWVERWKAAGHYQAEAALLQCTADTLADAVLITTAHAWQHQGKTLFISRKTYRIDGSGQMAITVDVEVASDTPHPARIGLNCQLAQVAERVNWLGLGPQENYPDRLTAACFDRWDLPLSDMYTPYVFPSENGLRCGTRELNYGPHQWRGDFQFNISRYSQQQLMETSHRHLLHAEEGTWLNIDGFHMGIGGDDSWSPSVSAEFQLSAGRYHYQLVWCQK
Chain of Endoplasmic reticulum aminopeptidase 1 (Q9NZ08 whole entry): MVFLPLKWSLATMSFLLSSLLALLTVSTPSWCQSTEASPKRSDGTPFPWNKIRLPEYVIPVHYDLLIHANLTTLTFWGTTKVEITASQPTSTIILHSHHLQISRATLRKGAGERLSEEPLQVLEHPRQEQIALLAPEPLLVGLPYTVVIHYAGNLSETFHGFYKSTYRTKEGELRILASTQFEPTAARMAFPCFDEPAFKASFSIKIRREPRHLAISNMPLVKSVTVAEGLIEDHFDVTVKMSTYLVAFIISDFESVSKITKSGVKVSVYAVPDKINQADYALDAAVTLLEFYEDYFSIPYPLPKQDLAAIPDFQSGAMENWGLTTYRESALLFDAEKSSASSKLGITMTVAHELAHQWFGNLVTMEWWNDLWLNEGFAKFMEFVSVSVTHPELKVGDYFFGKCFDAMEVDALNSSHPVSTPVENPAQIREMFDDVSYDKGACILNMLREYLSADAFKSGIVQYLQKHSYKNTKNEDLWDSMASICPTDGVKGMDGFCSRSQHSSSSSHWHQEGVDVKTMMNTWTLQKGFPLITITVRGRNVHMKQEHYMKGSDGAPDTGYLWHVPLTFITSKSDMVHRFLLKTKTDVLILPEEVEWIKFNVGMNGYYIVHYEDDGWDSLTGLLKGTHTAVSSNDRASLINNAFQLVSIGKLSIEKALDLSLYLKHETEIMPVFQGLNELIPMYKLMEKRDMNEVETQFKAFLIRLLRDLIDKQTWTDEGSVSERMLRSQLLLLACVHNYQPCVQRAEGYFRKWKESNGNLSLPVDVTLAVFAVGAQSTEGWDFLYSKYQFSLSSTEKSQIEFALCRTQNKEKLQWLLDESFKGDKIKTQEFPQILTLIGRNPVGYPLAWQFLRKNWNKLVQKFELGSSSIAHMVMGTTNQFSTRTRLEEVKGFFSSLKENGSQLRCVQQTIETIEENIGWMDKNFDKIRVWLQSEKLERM
Chain of Mitogen-activated protein kinase 10 (P53779 whole entry): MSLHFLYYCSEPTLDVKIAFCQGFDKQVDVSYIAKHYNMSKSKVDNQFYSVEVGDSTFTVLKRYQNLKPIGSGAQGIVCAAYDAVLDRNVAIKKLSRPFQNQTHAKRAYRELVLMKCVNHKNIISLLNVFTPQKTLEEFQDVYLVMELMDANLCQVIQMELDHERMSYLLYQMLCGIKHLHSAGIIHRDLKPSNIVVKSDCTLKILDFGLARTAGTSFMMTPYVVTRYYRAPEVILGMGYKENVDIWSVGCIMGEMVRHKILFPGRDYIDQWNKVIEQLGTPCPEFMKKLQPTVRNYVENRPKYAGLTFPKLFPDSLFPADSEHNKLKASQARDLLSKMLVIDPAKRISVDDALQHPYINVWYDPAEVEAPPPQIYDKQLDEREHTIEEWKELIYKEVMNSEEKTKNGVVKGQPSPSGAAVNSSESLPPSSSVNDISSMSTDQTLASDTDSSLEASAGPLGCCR

The term IC50 denotes the point on the concentration scale where inhibition reaches its midpoint. `O=C(NCc1nc2ncc(Br)cc2[nH]1)c1ccccc1`: in assay [1], the IC50 is recorded as 38.3 µM (not active).

In the case of `Cc1cc(C)c2cc(C(=O)N3CCC(C(=O)c4ccc(F)cc4)CC3)[nH]c2c1`, the IC50 on Beta-galactosidase is > 80 µM (inactive).

Regarding `O=C(CN1C(=O)CSC1=O)Nc1ccccc1N1CCOCC1`, the half-maximal inhibitory concentration (IC50) in [2] is > 100 µM (active).

As usually defined, the AC50 is the midpoint of the concentration-response curve, whichever way the signal moves. Take `CCN1[C@H](C(=O)Nc2nccs2)[C@@H](CO)[C@@H]2Cn3c(ccc(/C=C/c4ccccc4)c3=O)[C@@H]21`: in assay [3], the AC50 is 19 µM (active).

Turning to `CCOC(=O)c1c(NS(=O)(=O)c2ccc(Br)cc2)sc2c1CCC2`, the EC50 was > 150 µM (not active) on Streptokinase A, 4.07 µM (active) in the assay with Streptococcus and 2.1 µM (active) in assay [5]. Further, the IC50 against Estrogen receptor beta [4] and at Estrogen receptor beta [6] was > 50 µM (not active) in each case. For the same molecule, the AC50 in assay [7] is > 100 µM (inactive).

Take `O=[N+]([O-])c1ccccc1/C=C\C=N\N1CCN(c2ccccc2)CC1`: the AC50 in assay [8] is > 20 µM (inactive). Also, the half-maximal inhibitory concentration (IC50) at Nonstructural protein 1 was 59.2 µM (active).

With `O=c1oc2c(CN3CCN(CCO)CC3)c(O)ccc2cc1-c1ccccn1`, the EC50 in assay [9] is 6.05 µM (active). Also, the half-maximal activity concentration (AC50) in assay [3] was 1.46 µM (active).

In the case of `O=C(Nc1ccccc1N1CCOCC1)c1ccc2[nH]cnc2c1`, the IC50 on Prothrombin was 6.87 µM (active).

In the case of `Cc1ccc(Cl)cc1N1CCN(C(=O)c2cc3c(O)nc4ccccc4c3n2C)CC1`, at Beta-galactosidase, the IC50 was > 80 µM (inactive).

Consider `Cc1ccnc(NC(=O)C2CCCN(S(=O)(=O)c3c[nH]cn3)C2)c1` (stereo not drawn), for which the IC50 against Prothrombin is > 50 µM (not active).

For the molecule `COc1cccc(CNC(=O)[C@H]2N[C@H]3c4ccc(/C=C/c5ccccc5)c(=O)n4C[C@H]3[C@@H]2CO)c1`, the concentration at half-maximal activity (AC50) in assay [3] is 16.2 µM (active).

Take `O=C(c1ccc(N2CCCCC2)c([N+](=O)[O-])c1)N(c1ccccn1)c1ccccn1`: the IC50 against Prothrombin is on record as > 50 µM (not active).

`Cc1ccc2oc(=O)c3cnn(CC(=O)N4CCN(c5ccccn5)CC4)c3c2c1`: the half-inhibitory concentration (IC50) in [1] was > 93.1 µM (not active).

As for `FC(F)(F)c1ccc(Oc2ccc3cc(Br)ccc3c2)nc1`, on Beta-galactosidase, the IC50 was > 80 µM (inactive).

`COCC(=O)Nc1sc2c(c1C(=O)OC)C(C(=O)OC)CC2` (stereo not drawn): the half-maximal inhibitory concentration (IC50) in [2] is > 100 µM (active).

For `C[C@@H]1CN([C@@H](C)CO)S(=O)(=O)c2ccc(C3=CCCCC3)cc2O[C@@H]1CN(C)C(=O)Nc1ccc2c(c1)OCO2`, the AC50 in assay [10] was 0.502 µM (active).

For the origin of these results see ChEMBL document CHEMBL1201862, “PubChem BioAssay data set” (2004).
